Reference: patent publication US9481648B2, “Kinase inhibitors” (Respivert Limited, priority 2013, dated 2016)
Read-outs that look alike come from different tables or passages of the source.

Assays:
[1] = target: GSK 3α (Homo sapiens (Human), UniProt P49840); experiment: GSK 3α enzyme inhibition (FRET, Z-LYTE; Method 2); format: biochemical; settings: read-out: IC50 Values for Enzyme Inhibition GSK3α
Procedure, shortened: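 Z-LYTE FRET assay: GSK3-α (500 ng/mL stock) preincubated 105 min at RT with compound at 10, 1, 0.1 or 0.01 μg/mL stock. FRET peptide (8 μM stock) and ATP (40 μM stock) were then added for 1 h, followed by protease development for 1 h. Phosphorylation was read as coumarin/fluorescein emission ratio.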

[2] = test system: non-mutant kinases; format: binding; settings: for KinomeScan Selectivity Score S(1): (number of non-mutant kinases with % Ctrl <1)/(number of non-mutant kinases tested); for KinomeScan Selectivity Score S(10): (number of non-mutant kinases with % Ctrl <10)/(number of non-mutant kinases tested); for KinomeScan Selectivity Score S(35): (number of non-mutant kinases with % Ctrl <35)/(number of non-mutant kinases tested); for number of individual kinase hits, S(1): non-mutant kinases with % Ctrl <1; for number of individual kinase hits, S(10): non-mutant kinases with % Ctrl <10; for number of individual kinase hits, S(35): non-mutant kinases with % Ctrl <35
Experimental: These assays may be conducted by DiscoverX (formerly Ambit; San Diego, Calif.). The percentage inhibition produced by incubation with a test compound may be calculated relative to the non-inhibited control.

[3] = Plasma pharmacokinetics in rats, single intravenous or oral administration; format: in vivo, rat (male Wistar)
Experimental: Studies were conducted by Sai Life Sciences (Hinjewadi, Pune, India) to investigate the plasma pharmacokinetics and total colon tissue distribution of compounds of the invention. In particular, pharmacokinetic studies were carried out in: • male C57BL/6 mice, following a single oral administration; and • male Wistar rats following a single intravenous or oral administration.

[4] = target: CYP2C9 (Homo sapiens (Human), UniProt P11712); experiment: CYP2C9 inhibition study; format: in vitro ADME; settings: for inhibition at 15 µM: human, read-out: 15 μM % Inh
Experimental: (§1) Assessment of certain in vitro ADME (absorption, distribution, metabolism, and excretion) parameters for certain compounds of the invention was conducted by BioFocus (Saffron Walden, UK).

[5] = target: CYP3A4 (Homo sapiens (Human), UniProt P08684); experiment: CYP3A4 inhibition study; format: in vitro ADME; settings: for inhibition at 15 µM: human, read-out: 15 μM % Inh
Experimental: as §1

[6] = test system: endotoxin (LPS)-induced uveitis in Lewis rats; experiment: Endotoxin-induced uveitis in rats (in vivo vi); parameters: species or system rat
Experimental: Male, Lewis rats (6-8 weeks old, Charles River UK Limited) are housed in cages of 3 at 19-21° C. with a 12 h light/dark cycle (07:00/19:00) and fed a standard diet of rodent chow and water ad libitum. Non-fasted rats are weighed, individually identified on the tail with a permanent marker, and receive a single intravitreal administration into the right vitreous humor (5 μL dose volume) of 100 ng/animal of LPS (Escherichia coli 0111:B4 prepared in PBS, Sigma Aldrich, UK) using a 32-gauge needle. Untreated rats are injected with PBS. […] Following euthanasia, the right eye of each animal is enucleated and dissected into front (anterior) and back (posterior) sections around the lens. Each section is weighed and homogenised in 500 μL of sterile phosphate buffered saline followed by 20 minutes centrifugation at 12000 rpm at 4° C.

[7] = target: Syk (Homo sapiens (Human), UniProt P43405); experiment: Syk enzyme inhibition (FRET, Z-LYTE); format: biochemical
Procedure, shortened: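 Syk or c-Src enzyme (3000 or 2000 ng/mL solutions) was preincubated 2 h at RT with compound solutions at 1, 0.1, 0.01 or 0.001 µg/mL. Z-LYTE FRET peptide (8 µM solution) and ATP (800 µM solution for c-Src, 60 µM for Syk) were then added for 1 h, followed by protease development for 1 h. Phosphorylation was read as the coumarin/fluorescein emission ratio.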

[8] = Human hepatocyte stability test; format: in vitro ADME; settings: human hepatocytes
Experimental: as §1

[9] = test system: Salmonella typhimurium strain TA98; experiment: Mutagenicity assessment (bacterial reverse mutation screen); format: cell-based; settings: strain TA98, presence or absence of S-9 mix, up to 1000 μg/plate analysable
Experimental: Studies were conducted by Sequani (Ledbury, Herefordshire, UK) to assess compounds of the invention for their ability to induce mutations in two histidine dependent auxotrophic mutants of Salmonella typhimurium, strains TA98 and TA100 in vitro.
The mutation screen was conducted using the plate incorporation method and was performed in both the presence and absence of S-9 mix (a liver post-mitochondrial fraction derived from the livers of Aroclor 1254 treated rats). The bacteria were exposed to test compounds dissolved in dimethylsulphoxide, which solvent was also used as the negative control. The dose levels used were 0.32, 1.6, 8, 40, 200, 1000 or 5000 μg/plate.
Precipitation was also noted in both strains at 1000 μg/plate in the presence and absence of S-9 mix.

[10] = male, Wistar, rat, plasma, po, 5 mg/kg
[11] = male, Wistar, rat, plasma, po, 5 mg/kg, read-out: Median plasma concentration
[12] = male, Wistar, rat, plasma, rats, intravenous 0.25 mg/kg
[13] = Table 7b, eyes of LPS-stimulated rats, 1 mg/mL

Chain of CYP3A4 (P08684 whole entry): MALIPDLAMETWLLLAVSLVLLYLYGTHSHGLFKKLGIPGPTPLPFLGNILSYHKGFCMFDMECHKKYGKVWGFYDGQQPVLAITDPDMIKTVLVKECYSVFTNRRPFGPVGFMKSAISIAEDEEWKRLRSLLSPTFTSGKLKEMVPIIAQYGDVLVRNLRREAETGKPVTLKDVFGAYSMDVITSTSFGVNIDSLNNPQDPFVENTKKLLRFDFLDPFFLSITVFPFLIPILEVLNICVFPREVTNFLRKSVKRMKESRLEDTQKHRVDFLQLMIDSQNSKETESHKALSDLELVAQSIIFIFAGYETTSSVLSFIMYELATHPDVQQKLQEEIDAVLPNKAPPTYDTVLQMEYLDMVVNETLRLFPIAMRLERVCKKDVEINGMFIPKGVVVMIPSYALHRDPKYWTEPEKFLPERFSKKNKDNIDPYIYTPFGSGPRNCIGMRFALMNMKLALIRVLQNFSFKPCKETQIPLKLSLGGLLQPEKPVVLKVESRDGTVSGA
Chain of CYP2C9 (P11712 whole entry): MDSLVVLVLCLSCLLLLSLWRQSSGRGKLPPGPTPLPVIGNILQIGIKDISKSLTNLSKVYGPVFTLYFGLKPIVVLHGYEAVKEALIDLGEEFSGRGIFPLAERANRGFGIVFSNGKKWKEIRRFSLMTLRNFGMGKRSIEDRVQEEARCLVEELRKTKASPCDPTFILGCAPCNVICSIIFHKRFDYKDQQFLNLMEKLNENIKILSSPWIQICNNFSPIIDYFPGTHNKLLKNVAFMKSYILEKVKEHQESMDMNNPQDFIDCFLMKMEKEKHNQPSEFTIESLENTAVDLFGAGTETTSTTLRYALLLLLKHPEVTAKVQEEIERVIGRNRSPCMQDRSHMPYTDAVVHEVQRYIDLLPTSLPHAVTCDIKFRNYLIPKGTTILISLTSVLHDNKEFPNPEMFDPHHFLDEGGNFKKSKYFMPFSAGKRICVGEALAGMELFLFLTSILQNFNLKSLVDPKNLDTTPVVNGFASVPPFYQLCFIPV
Chain of GSK 3α (P49840 whole entry): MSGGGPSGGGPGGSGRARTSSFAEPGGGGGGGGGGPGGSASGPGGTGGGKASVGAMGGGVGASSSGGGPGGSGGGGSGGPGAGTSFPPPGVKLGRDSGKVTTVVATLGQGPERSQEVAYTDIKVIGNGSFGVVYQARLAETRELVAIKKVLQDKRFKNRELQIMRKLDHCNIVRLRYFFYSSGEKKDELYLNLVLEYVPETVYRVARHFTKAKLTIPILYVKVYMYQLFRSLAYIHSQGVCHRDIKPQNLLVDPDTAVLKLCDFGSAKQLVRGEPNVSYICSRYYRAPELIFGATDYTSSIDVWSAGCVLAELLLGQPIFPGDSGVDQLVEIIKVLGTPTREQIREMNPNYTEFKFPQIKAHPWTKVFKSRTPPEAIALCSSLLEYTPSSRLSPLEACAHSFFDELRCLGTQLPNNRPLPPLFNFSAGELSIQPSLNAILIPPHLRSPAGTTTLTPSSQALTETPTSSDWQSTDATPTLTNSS

COc1c(NC(=O)Nc2ccc(Oc3ccnc(Nc4ccccc4)c3)c3ccccc23)cc(C(C)(C)C)cc1C(=O)NC1COC1 [Example 75, 5-(tert-Butyl)-2-methoxy-N-(oxetan-3-yl)-3-(3-(4-((2-(phenylamino)pyridin-4-yl)oxy)-naphthalen-1-yl)ureido)benzamide]
IC50 [1]: 6.03 µM | KinomeScan Selectivity Score S(1) ([2]; 50 nM): 0.005 | KinomeScan Selectivity Score S(10) ([2]; 50 nM): 0.035 | KinomeScan Selectivity Score S(35) ([2]; 50 nM): 0.099 | number of individual kinase hits, S(1) ([2]; 50 nM): 2 | number of individual kinase hits, S(10) ([2]; 50 nM): 14 | number of individual kinase hits, S(35) ([2]; 50 nM): 39 | KinomeScan Selectivity Score S(1) ([2]; 500 nM): 0.038 | KinomeScan Selectivity Score S(10) ([2]; 500 nM): 0.139 | KinomeScan Selectivity Score S(35) ([2]; 500 nM): 0.230 | number of individual kinase hits, S(1) ([2]; 500 nM): 15 | number of individual kinase hits, S(10) ([2]; 500 nM): 55 | number of individual kinase hits, S(35) ([2]; 500 nM): 91 | selectivity compared to the Reference Compound ([2]; as evidenced by lower selectivity scores): substantially improved selectivities | AUC(0-t) [3, 10]: 26.6 ng·h/mL | Cmax [3, 10]: 3.8 ng/mL | Tmax [3, 10]: 5.3 h | concentration at 0.25 h [3, 11]: 0 ng/mL | concentration at 0.5 h [3, 11]: 0 ng/mL | concentration at 1 h [3, 11]: 0 ng/mL | concentration at 2 h [3, 11]: 1.2 ng/mL | concentration at 4 h [3, 11]: 3.1 ng/mL | concentration at 6 h [3, 11]: 2 ng/mL | concentration at 8 h [3, 11]: 3.2 ng/mL | concentration at 12 h [3, 11]: 2.3 ng/mL | concentration at 24 h [3, 11]: 0 ng/mL | AUC(0-inf) [3, 12]: 952 ng·h/mL | AUC(0-t) [3, 12]: 948 ng·h/mL | half-life [3, 12]: 1.2 h | C0 ([3]; male, Wistar, rat, plasma, rats, intravenous 0.25 mg/kg in 5% DMSO-7.5% Solutol HS15-87.5% normal saline): 4000 ng/mL | Vd ([3]; male, Wistar, rat, plasma, rats, intravenous 0.25 mg/kg, read-out: Vss): 0.1 L/kg | CI ([3]; rats, intravenous 0.25 mg/kg): 4.4 mL/min/kg | Fpo ([3]; rats, oral 5 mg/kg, vehicle C (Example 4) or B): 0.1% | IC50 ([4]; CYP2C9, 0 min preincubation): > 15 µM | IC50 ([4]; CYP2C9, 30 min preincubation): > 15 µM | inhibition at 15 µM ([4]; CYP2C9, 0 min preincubation): 20% | inhibition at 15 µM ([4]; CYP2C9, 30 min preincubation): 36% | IC50 ([5]; CYP3A4, 0 min preincubation): > 15 µM | IC50 ([5]; CYP3A4, 30 min preincubation): > 15 µM | inhibition at 15 µM ([5]; CYP3A4, 0 min preincubation): 3% | inhibition at 15 µM ([5]; CYP3A4, 30 min preincubation): 42% | IL-1β Anterior [6, 13]: 570 ± 146 pg/mL | IL-1β Posterior [6, 13]: 414 ± 97 pg/mL | IL-6 Anterior [6, 13]: 393 ± 118 pg/mL | IL-6 Posterior [6, 13]: 489 ± 119 pg/mL | MCP-1 Anterior [6, 13]: 239 ± 82 pg/mL | MCP-1 Posterior [6, 13]: 279 ± 83 pg/mL | cytokine levels in both the anterior and posterior segments of the eyes ([6]; rats treated with intravitreal endotoxin LPS, topical dosing): significantly reduced | IC50 [7]: 0.214 µM | half-life [8]: > 3.33 h | hepatocyte CLint ([8]; read-out: Mean intrinsic clearance): < 7 µL/min/1e6 cells | increases in revertant colonies [9]: no dose-related or statistically significant increases
